Tests used:
Assay type in all cases: in vivo
Musca domestica = test: Test Example 2: treated filter paper with sucrose bait, death rate of Musca domestica; conditions: 500 ppm test solution, 0.7 ml on filter paper, 10 female imagoes, after 24 hours
Procedure: (§1) Preparations of the present compounds (1), (2), (3), (4), (5), (6), (7), (8), (9), (10), (13), (18), (23), (24), (25), (26), (27), (28), (29), (30), (31), (32), (33), (34), (35), (38) and (39) obtained according to Formulation Example 44 were diluted so that the active ingredient concentration was 500 ppm to obtain test solutions.
(§2) A filter paper having a diameter of 5.5 cm was spread on the bottom of a polyethylene cup having a diameter of 5.5 cm and 0.7 ml of the test solution was added dropwise onto the filter paper. As a bait 30 mg of sucrose was uniformly placed on the filter paper. Into the polyethylene cup, 10 female imagoes of Musca domestica were released and the cup was sealed with a lid. After 24 hours, the number of surviving Musca domestica was examined and the death rate of the pest was calculated.
As a result, in treatments with the present compounds (1), (2), (3), (4), (5), (6), (7), (8), (9), (10), (13), (18), (23), (24), (25), (26), (27), (28), (29), (30), (31), (32), (33), (34), (35), (38) and (39), the death rate of the pest was 70% or more.

Blattalla germanica = test: Test Example 3: treated filter paper with sucrose bait, death rate of Blattalla germanica; conditions: 144 h; 500 ppm test solution, 0.7 ml on filter paper; 2 male imagoes; after 6 days
Procedure: as §1, with “compounds” for “compounds (1), (2),”, “(7),” for “(7), (8),”, “(13),” for “(13), (18),”
as §2, with “2 male” for “10 female”, “Blattalla germanica” for “Musca domestica”, “6 days,” for “24 hours,”
As a result, in treatments with the present compounds (3), (4), (5), (6), (7), (9), (10), (13), (23), (24), (25), (26), (27), (28), (29), (30), (31), (32), (33), (34), (35), (38) and (39), the death rate of the pest was 100%.

Culex pipiens pallens = test: Test Example 4: larvae released into treated water, death rate of Culex pipiens pallens; conditions: 24 h, active ingredient concentration 3.5 ppm in water, 20 last-instar larvae, after one day
Procedure: as §1, with “(7),” for “(7), (8), (9), (10),”, “(13), (14), (15), (16),” for “(13),”, “(18), (22),” for “(18),”, “(35), (36),” for “(35),”
To 100 mL of ion-exchanged water, 0.7 ml of the test solution was added (active ingredient concentration: 3.5 ppm). Into the solution, 20 last-instar larvae of Culex pipiens pallens were released. After one day, the number of surviving Culex pipiens pallens was examined and the death rate of the pest was calculated.
As a result, in treatments with the present compounds (1), (2), (3), (4), (5), (6), (7), (13), (14), (15), (16), (18), (22), (23), (24), (25), (26), (27), (28), (29), (30), (31), (32), (33), (34), (35), (36), (38) and (39), the death rate of the pest was 90% or more.

[1] = test system: Haemaphysalis longicornis; test: Test Example 5: treated filter paper pouch, death rate of ticks; conditions: 48 h, filter paper treated with 100 mg/m^2, non-blood-sucking nymphal ticks, 10 ticks/group, after 2 days, read-out: death rate of the tick
Procedure: Five milligrams of any one of the present compounds (19), (23), (24), (27), (28), (29), (32), (33), (35), (38) and (39) was dissolved in 10 mL of acetone. One milliliter of the acetone solution was uniformly applied on one side of a filter paper (TOYO No. 2; 5×10 cm), so that the filter paper was treated with 100 mg/m^2 of the present compound. After drying, the filter paper was folded in two and its edges were clipped to make a pouch. Non-blood-sucking nymphal ticks (Haemaphysalis longicornis, 10 ticks/group) were put into the pouch, and the pouch was sealed with clips. After 2 days, the number of surviving ticks was examined and the death rate was calculated.
As a result, in treatments with the present compounds (19), (23), (24), (27), (28), (29), (32), (33), (35), (38) and (39), the death rate of the tick was 90%.

SMILES	pest or weed control at 500 ppm (Musca domestica) [%]	pest or weed control at 500 ppm (Blattalla germanica) [%]	pest or weed control at 3.5 ppm (Culex pipiens pallens) [%]	pest or weed control at 100 mg/m2 [1] [%]
C#CC(C)CCCC(C#N)S(=O)(=O)CCC(F)(F)F (stereo not shown) [present compound (28), 6-methyl-2-(3,3,3-trifluoropropylsulfonyl)-7-octynenitrile]	≥ 70	100	≥ 90	90
C#CCC(CC)CCC(C#N)S(=O)(=O)CCC(F)(F)F (stereo not shown) [present compound (29), 5-ethyl-2-(3,3,3-trifluoropropylsulfonyl)-7-octynenitrile]	≥ 70	100	≥ 90	90
C#CCC(CC)CCC(Cl)(C(N)=O)S(=O)(=O)CCC(F)(F)F (stereo not shown) [present compound (32), 2-chloro-5-ethyl-2-(3,3,3-trifluoropropylsulfonyl)-7-octynamide]	≥ 70	100	≥ 90	90
C#CCC(C)(C)CCC(C#N)S(=O)(=O)CCC(F)(F)F (stereo not shown) [present compound (33), 5,5-dimethyl-2-(3,3,3-trifluoropropylsulfonyl)-7-octynenitrile]	≥ 70	100	≥ 90	90
C/C(=C\CC(C#N)S(=O)(=O)CCC(F)(F)F)C(F)(F)F (stereo not shown) [present compound (35), 6,6,6-trifluoro-5-methyl-2-(3,3,3-trifluoropropylsulfonyl)-4-hexenenitrile]	≥ 70	100	≥ 90	90
C#CCOCCC(C#N)S(=O)(=O)CCC(F)(F)F (stereo not shown) [present compound (38), 4-(2-propyonyloxy)-2-(3,3,3-trifluoropropylsulfonyl)butanenitrile]	≥ 70	100	≥ 90	90
C#CCOCCC(C)(C#N)S(=O)(=O)CCC(F)(F)F (stereo not shown) [present compound (39), 2-methyl-4-(2-propynyloxy)-2-(3,3,3-trifluoropropylsulfonyl)butanenitrile]	≥ 70	100	≥ 90	90
